Entries after “also recorded” stand apart in the source; their conditions may differ.
Tests used:
[1] = test system: PI3K/AKT and MAPK pathways; test: AKT and MAPK signaling and Bcl-2 expression by western blot; format: cell-based, human
Procedure: FIG. 12, comprising FIGS. 12A through 12E, is a set of images and graphs showing renalase upregulates Bcl-2, activates PI3K/AKT, ERK, p38, and inhibits JNK. Western blot analysis; P− indicates phosphorylated, activated proteins; signals normalized to GAPDH loading control, then changes in protein phosphorylation (increase=activation, decrease=inhibition) from time 0 are calculated. FIG. 12A: HK-2 and HUVEC cells incubated with renalase for 24 hrs; FIG. 12B: Western blot of time course of AKT and MAPK signaling by renalase, HK-2 cells incubated with renalase for indicated time; changes over baseline in 4c-d are significant (p<0.05); FIG. 12C: Activation of AKT(T308), AKT(5473) and ERK; FIG. 12D: Inhibition of JNK; FIG. 12E: Marked and sustained (60 min) upregulation of p38 by renalase in the presence of cisplatin, western blot for time course, REN=renalase, CP=cisplatin.
MAPK signaling by renalase and renalase peptides. Western blot analysis; ERK: Extracellular signal-Regulated Kinase 1 and 2; JNK: c-Jun N-terminal Kinases; AKT: protein kinase B; p-indicates phosphorylated, activated proteins; representative blot, n=3 (FIG. 20A). Renalase activates AKT (FIG. 20B). Western blot analysis; P− indicates phosphorylated, activated proteins Representative blot, n=3 (FIG. 20B, left panel). Signals normalized to GAPDH loading control; n=3, change over baseline statistically significant (P<0.05) from 1-60 min for ERK, p38 and AKT (T308), and at 30 min only for AKT (S473) (FIG. 20B, right panel). ERK or AKT inhibition abrogates protective effect of RP-H220 (FIG. 20C). Plasma creatinine levels from mice subjected to sham-surgery or to renal ischemia and reperfusion (IR); Renalase WT mice were subjected to sham-surgery or to 30 min renal IR. For mice subjected to renal IR, RP-H220 or vehicle (saline) was injected 10 min prior to renal ischemia. Some animals were pretreated with either the ERK inhibitor PD98059 or the PI3K/AKT inhibitor wortmanin. (N=6-8 per group). *: P<0.05 vs. vehicle-treated mice subjected to sham-surgery; #: P<0.05 vs. vehicle-treated WT mice subjected to renal IR (FIG. 20C).

[2] = test system: renal ischemia/reperfusion (IR) injury; test: Murine model of renal ischemia/reperfusion (IR) injury, plasma creatinine; format: in vivo, mice; settings: renalase peptides 100 μg subcutaneous 10 to 30 min prior to 30 min renal ischemia, WT mice
Procedure: Adult male renalase deficient (KO) mice (Wu et al., 2011, Kidney Int 79: 853-860) on a C57BL/6 background were subjected to renal ischemia/reperfusion (IR) as described (Kim et al., 2009, Kidney Int 75: 809-823; Kim et al., 2010, Am J Physiol Renal Physiol 299(2):F347-58). Renalase KO or wild type (WT) mice (C57BL/6 from Harlan Labs, Indianapolis, Ind.) were subjected to sham-operation or to 20 min. (moderate) or 30 min. (severe) renal ischemia and 24 hr. reperfusion. To test the renal protective effects of recombinant human renalase, mice were pretreated with saline (vehicle) or with recombinant renalase (0.5, 1.5 or 4.5 mg/kg, s.c.) 10 min. prior to 30 min. renal ischemia. It was also tested whether renalase treatment after completion of renal ischemia also provides renal protection. Separate cohorts of mice were treated with saline or with renalase (1.5 mg/kg, s.c.) 30 min. or 60 min. after reperfusion of the ischemic kidney. To test whether blocking alpha receptors would mimic the renal protective effects of human recombinant renalase administration, phentolamine (an alpha receptor antagonist, 5 mg/kg, i.p.) was given in some mice 15 min. before renal ischemia.
Plasma creatinine was measured as described with an enzymatic creatinine reagent kit according to the manufacturer's instructions (Thermo Fisher Scientific, Waltham, Mass.) (Slot, 1965, J Clin Lab Invest 17: 381-387).
After animal care and use committee approval, adult male C57BL/6 (Harlan Labs, Indianapolis, Ind.) were subjected to sham-operation or to 30 minutes of renal ischemia followed by 24 hrs of reperfusion as previously described (Lee et al., 2004, American journal of physiology. Renal physiology 286:F298-306). To test the renal protective effects of renalase peptides (RP-220, RP-H220 and RP-224), mice were pretreated with saline (vehicle) or with renalase peptides (100 μg subcutaneous) 10 to 30 minutes prior to renal ischemia.
Blood was collected from mice anesthetized with isoflurane via cardiac puncture into a heparinized syringe and was subsequently centrifuged to separate plasma. Samples were submitted to the Yale O'Brien Kidney Center for measurement of BUN and creatinine. Plasma creatinine was measured either by an enzymatic creatinine reagent kit according to the manufacturer's instructions (Thermo Fisher Scientific, Waltham, Mass.) or by HPLC. These methods of creatinine measurement largely eliminate the interferences from mouse plasma chromagens, known to occur with the Jaffe method.

systemic blood pressure = test: Blood pressure and heart rate in anesthetized mice; format: in vivo; settings: for effect on systemic blood pressure: IV and subcutaneous administration, mice
Procedure: As in 14A, except that RP-H220 is injected; no significant changes in blood pressure (FIG. 14B). Effect of a single intravenous injection of RP-220 (squares) and RP-H220 (diamonds) on heart rate in wild type mice (FIG. 14C).
FIG. 21 depicts the results of experiments examining the effect of RP-220 injection on blood pressure. A single subcutaneous injection of RP-220 (n=3) or buffer (n=2) in anesthetized wild type mice; BP pressure is recorded continuously; RP-220 is given at time 0; each data point represents the mean pressure; the standard error of the means are shown.
Systolic and diastolic pressure and heart rate were measured in anesthetized mice as previously described (Desir et al., 2012, J Am Heart Assoc. 1:e002634).

With “RP H220: histidine tagged RP-220, SEQ ID NO: 4, HHHHHHCIRFVSIDNKKRNIESSEIG (listed as Homo sapiens)” the “return of phosphorylation to baseline” value ([1]; HK-2 cells) was no more than 60 min, the “time to detectable increased phosphorylation” value ([1]; HK-2 cells) was no more than 1 min and the JNK phosphorylation ([1]; at 60 min) was “decreased”. The “protection against ischemic AKI (renal injury, plasma creatinine at 24 hr)” value [2] was “protected against ischemia”, the “protection against ischemic AKI (renal injury, plasma creatinine at 24 hr)” value ([2]; listed as RP-H220) was “reduced renal injury; also recorded: more effective than RP-220; also recorded: ameliorated the renal ischemic injury” and the “effect on systemic blood pressure” value (systemic blood pressure) was “nor significant effect on systemic blood pressure; also recorded: no effect on BP”. The “effect on systemic blood pressure” value (systemic blood pressure; listed as RP-H220) was “neither intravenous nor subcutaneous injection of RP-H220 had any effect on blood pressure” and the heart rate (systemic blood pressure; anesthetized WT mice) was “did not change”.
